# Entries after “also recorded” stand apart in the source; their conditions may differ. Like-named read-outs stand apart in the source and are kept apart here.
# Assays:
# physchem = settings: aqueous buffer, kinetic from dmso stock
# Protocol: Solubility assays were carried out on a Biomek FX lab automation workstation (Beckman Coulter, Inc., Fullerton, Calif.) using μSOL Evolution software (pION Inc., Woburn, Mass.). […] Compound stock (10 mM in DMSO, 10 μL) was added to 1-propanol (190 μL) to make a reference stock plate. […] Test compound stock (10 mM, 6 μL) was added to buffer (594 μL) in a 96-well storage plate and mixed. […] The suspension was then filtered through a 96-well filter plate (pION Inc., Woburn, Mass.). […] Calculation was carried out by μSOL Evolution software based on the AUC (area under curve) of UV spectrum of the sample plate and the reference plate. All compounds were tested in triplicate.
# DCN1-UBC12 interaction = DCN1-UBC12 interaction (Homo sapiens (Human), UniProt Q96GG9); assay: biochemical; type: binding; settings: for inhibition of the DCN1-UBC12NAc interaction: TR-FRET assay
# [1] = type: in vitro ADME; settings: Table 10
# Protocol: Test compound stock (10 mM in DMSO, 3 μL) was mixed with citrate phosphate buffered saline (597 μL) to make diluted test compound. Diluted test compound (150 μL) was transferred to a UV plate (pION Inc., Woburn, Mass.) and the UV spectrum (250 nm-500 nm) was read as the reference plate. Each well of the donor plate in a PAMPA sandwich plate (pION Inc., Woburn, Mass.) contained a filter that was painted on one side with 4 μL GIT lipid (pION Inc., Woburn, Mass.) to form a membrane. Each well in the acceptor plate in a PAMPA sandwich, preloaded with magnetic stir bars, was filled with acceptor solution buffer (200 pION Inc., Woburn, Mass.). The donor plate was filled with diluted test compound (180 The PAMPA sandwich was assembled by placing the donor plate over the acceptor plate. The combined PAMPA plate was placed on a pIon Gut-Box™, a stirring apparatus that allows equilibrium to be reached quicker. Aqueous Boundary Layer of the pIon Gut-Box™ was set to 40 μm and the compounds stirred for 30 minutes. The UV spectrum (250 nm-500 nm) of the donor and the acceptor were read. The permeability coefficient was calculated using PAMPA evolution 96 command software (pION Inc., Woburn, Mass.) based on the whole spectrum measured from the reference plate, the donor plate, and the acceptor plate. All compounds were tested in triplicates.
# [2] = target: Dcn1P-mediated co-E3 activity (Homo sapiens (Human), UniProt Q96GG9); assay: Pulse-chase neddylation assay (NEDD8 transfer from UBC12 to CUL2CTD); type: biochemical; settings: for inhibition of labeled NEDD8 transfer from UBC12 to CUL2CTD-RBX2: pulse-chase neddylation assay
# Sequence of Dcn1P-mediated co-E3 activity (Q96GG9 whole entry, looked up): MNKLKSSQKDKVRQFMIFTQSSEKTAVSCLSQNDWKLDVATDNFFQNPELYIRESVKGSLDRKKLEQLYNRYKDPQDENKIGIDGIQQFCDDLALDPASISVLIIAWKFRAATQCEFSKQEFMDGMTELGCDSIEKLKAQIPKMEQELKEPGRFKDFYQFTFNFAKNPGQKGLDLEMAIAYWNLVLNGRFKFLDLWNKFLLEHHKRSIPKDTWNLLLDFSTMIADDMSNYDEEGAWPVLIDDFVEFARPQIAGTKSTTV
# Sequence of Dcn1P-mediated co-E3 activity (Q13617 whole entry partner, looked up): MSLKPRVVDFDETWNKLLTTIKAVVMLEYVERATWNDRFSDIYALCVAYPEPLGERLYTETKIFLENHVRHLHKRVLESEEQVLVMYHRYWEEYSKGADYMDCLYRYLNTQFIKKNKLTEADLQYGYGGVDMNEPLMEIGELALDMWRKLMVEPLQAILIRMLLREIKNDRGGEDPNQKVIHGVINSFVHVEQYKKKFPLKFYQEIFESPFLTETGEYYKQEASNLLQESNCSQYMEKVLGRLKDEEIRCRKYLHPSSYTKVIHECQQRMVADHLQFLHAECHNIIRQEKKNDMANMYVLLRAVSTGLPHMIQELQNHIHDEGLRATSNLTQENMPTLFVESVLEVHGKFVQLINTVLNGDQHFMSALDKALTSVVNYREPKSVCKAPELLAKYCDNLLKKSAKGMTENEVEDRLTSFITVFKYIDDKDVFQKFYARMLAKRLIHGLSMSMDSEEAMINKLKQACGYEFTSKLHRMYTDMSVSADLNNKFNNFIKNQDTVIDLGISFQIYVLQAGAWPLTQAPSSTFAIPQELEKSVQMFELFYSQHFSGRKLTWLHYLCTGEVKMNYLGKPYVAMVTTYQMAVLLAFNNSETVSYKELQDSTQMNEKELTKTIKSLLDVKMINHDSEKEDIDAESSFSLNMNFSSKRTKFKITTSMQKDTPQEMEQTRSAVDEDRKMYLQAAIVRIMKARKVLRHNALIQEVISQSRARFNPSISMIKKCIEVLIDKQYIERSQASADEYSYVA
# Sequence of Dcn1P-mediated co-E3 activity (Q9UBF6 whole entry partner, looked up): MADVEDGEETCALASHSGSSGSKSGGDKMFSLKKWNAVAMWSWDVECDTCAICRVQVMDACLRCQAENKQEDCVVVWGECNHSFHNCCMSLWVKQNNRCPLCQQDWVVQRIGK
# Protocol: Compound inhibition of Dcn1^P-mediated co-E3 activity was monitored using pulse-chase assays to exclusively monitor effects of Nedd8 transfer to Cul2 without sensing earlier steps in the reaction. […] Load reactions were quenched by the addition of EDTA to 50 mM and incubated on ice for 5 minutes. Chase reactions involved dilution of the UBC12˜[^FAM]-Nedd8 thioester conjugate to 40 nM in 50 mM Tris, 50 mM NaCl, 50 mM EDTA, 0.5 mg/mL BSA, pH 6.8. […] Fluorescent gels were visualized by scanning on a Typhoon imager (GE).
# endosome maturation = assay: Endosome maturation (LAMP1 positive vesicles) imaging; type: cell-based
# in vivo = settings: for concentration at 3 day / concentration at 7 day / concentration at 24.4 h / concentration at […] / concentration at 1 h: male; for concentration at 3 day: Day 3; for concentration at 7 day: Day 7
# HCC95 cancer cells = assay: Cullin neddylation in cancer cells (cell lysis and western blot); type: cell-based
# Protocol: Cell pellets harvested from a 6 well dish were resuspended in 30-40 μL of lysis buffer (50 mM Tris, 150 mM NaCl, 0.5% NP-40, 0.1% SDS, 6.5 M Urea, 2 mM 1,10-orthophenanthroline, 1× Halt Protease and Phosphatase inhibitor cocktail (ThermoFisher), 0.25 kU Universal Nuclease (ThermoFisher), pH 7.5). Cell pellet suspensions were incubated on ice for 25 minutes with occasional mixing by pipetting up and down. Lysates were cleared by centrifugation at 13 K rpm for 20 minutes and the supernatant was removed as total cell lysate sample. Protein concentration of the cell lysate was determined by BCA assay (Pierce) using BSA as a control. Cell lysates were diluted into 2×SDS-PAGE sample buffer such that 25 μg of total protein was loaded per well. […] Primary antibodies were prepared in blocking buffer and incubated with membranes overnight at 4° C. with rocking. Membranes were extensively washed in 1×TBS, 0.1% Tween-20. Secondary antibodies were prepared in blocking buffer according to the manufactures recommendations and incubated with membranes for 1 hour at room temperature. After extensive washing the membranes were developed with SuperSignal West Pico Chemiluminescent substrate (ThermoFisher) and developed by film exposure (HyBlot CL, Denville scientific).
# HCC95 cells = assay: Soft agar anchorage independent growth assay; type: cell-based; settings: 10 μM
# [3] = preliminary experiment
# [4] = Seven day spermatogenesis study; type: in vivo; settings: for Weight: oral gavage, B.I.D.; for Motility / Sperm Count / Viability (%): oral gavage B.I.D.
# U-2 OS cells = assay: Electron microscopy of compound treated cells; type: cell-based
# [5] = Table 10, R101 series, read-out: IC50 (μM) (TR-FRET)
# [6] = Table 6, commercial compounds, read-out: TR-FRET IC50
# [7] = Plasma Concentration (μM), 50 mg/kg
# [8] = Plasma Concentration (μM), 100 mg/kg
# [9] = Plasma Concentration, Repeat Dose (0 and 7.5 hr)
# [10] = Plasma Concentration, Single Dose (0 hr)
# [11] = Testis Concentration (μM), 50 mg/kg
# [12] = Testis Concentration (μM), 100 mg/kg
# [13] = Testis Concentration, Repeat Dose (0 and 7.5 hr)
# [14] = Testis Concentration, Single Dose (0 hr)
# Sequence of DCN1-UBC12 interaction (Q96GG9 60-248 limits assumed): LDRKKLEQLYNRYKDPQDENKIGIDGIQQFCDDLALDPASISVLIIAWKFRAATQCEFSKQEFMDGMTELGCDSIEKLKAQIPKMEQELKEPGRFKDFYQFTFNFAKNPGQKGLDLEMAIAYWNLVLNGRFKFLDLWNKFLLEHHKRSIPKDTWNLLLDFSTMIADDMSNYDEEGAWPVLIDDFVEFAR
compound,measurement,setting,value
O=C(Nc1cccc(C(F)(F)F)c1)N(Cc1ccccc1)C1CCN(Cc2ccc3c(c2)OCCO3)CC1 [compound 27],solubility kinetic,physchem,1 ± 1.3 µM
same,IC50,DCN1-UBC12 interaction; [5],7.3 µM
same,Pampa (×10^−6 cm/s),[1],>2200 ×10^−6 cm/s
"CCCN1CCN(C(=O)c2cnn(-c3nccc(-c4cccs4)n3)c2C(C)C)CC1 [E1, (5-Isopropyl-1-(4-(Thiophen-2-yl)Pyrimidin-2-yl)-1H-Pyrazol-4-yl)(4-Propylpiperazin-1-yl)Methanone]",inhibition of the DCN1-UBC12NAc interaction,DCN1-UBC12 interaction,dose-dependent inhibition
same,IC50,DCN1-UBC12 interaction; [6],1.07 µM
same,inhibition of labeled NEDD8 transfer from UBC12 to CUL2CTD-RBX2,[2],dose-dependent inhibition
CCCCN1CCC(N(Cc2ccc3c(c2)OCO3)C(=O)Nc2cc(F)cc(C(F)(F)F)c2)CC1 [A83],IC50,DCN1-UBC12 interaction; read-out: TR-FRET IC50,0.901 µM
same,effect on endosome maturation,endosome maturation; 3 μM on cells,affect endosome maturation
O=C(Nc1cccc(C(F)(F)F)c1)N(Cc1ccccc1)C1CCN(Cc2cccnc2)CC1 [compound 23],solubility kinetic,physchem,30 ± 1.1 µM
same,IC50,DCN1-UBC12 interaction; [5],12 µM
same,Pampa (×10^−6 cm/s),[1],>2200 ×10^−6 cm/s
CCCCN1CCC(N(Cc2ccccc2)C(=O)Nc2ccc(Cl)c(Cl)c2)CC1 [A7],half-life,in vivo,4 to 5 h
same,concentration at 3 day,in vivo; [7],2.7 ± 2.4 µM
same,concentration at 7 day,in vivo; [7],1.7 ± 1.2 µM
same,concentration at 3 day,in vivo; [8],2.4 ± 1.2 µM
same,concentration at 7 day,in vivo; [8],1.4 ± 0.6 µM
same,concentration at 24.4 h,in vivo; [9],0.62 ± 0.16 µM
same,concentration at […],in vivo; [9],4.8 ± 1.3 µM
same,concentration at 1 h,in vivo; [10],3.7 ± 0.95 µM
same,concentration at 24.4 h,in vivo; [10],0.47 ± 0.32 µM
same,concentration at 3 day,in vivo; [11],11.6 ± 3.4 µM
same,concentration at 7 day,in vivo; [11],8.25 ± 4.1 µM
same,concentration at 3 day,in vivo; [12],25.9 ± 11.1 µM
same,concentration at 7 day,in vivo; [12],31.2 ± 12.8 µM
same,concentration at 24.4 h,in vivo; [13],6.2 ± 5.3 µM
same,concentration at […],in vivo; [13],16.7 ± 3.1 µM
same,concentration at 1 h,in vivo; [14],2.1 ± 0.74 µM
same,concentration at 24.4 h,in vivo; [14],4.4 ± 3.3 µM
same,levels of neddylated Cullins / cullin neddylation,HCC95 cancer cells,reduce the levels of neddylated Cullins; also recorded: selectively inhibit cullin neddylation
same,anchorage independent growth,HCC95 cells,inhibit the anchorage independent growth of HCC95 cells
same,maximum serum concentration,[3],1.5 to 3 µM
same,Weight,[4]; 50 mpk,146.3 ± 27.7 mg
same,Weight,[4]; 100 mpk,150.1 ± 18.9 mg
same,Motility,[4]; animal 50 mpk-1,Stationary
same,Sperm Count,[4]; animal 50 mpk-1,Low
same,Viability (%),[4]; animal 50 mpk-1,<20%
same,Motility,[4]; animal 50 mpk-2,Stationary
same,Sperm Count,[4]; animal 50 mpk-2,Low
same,Viability (%),[4]; animal 50 mpk-2,0%
same,Motility,[4]; animal 50 mpk-3,"Good, erratic"
same,Sperm Count,[4]; animal 50 mpk-3,Normal
same,Viability (%),[4]; animal 50 mpk-3,>50%
same,Motility,[4]; animal 100 mpk-1,No movement
same,Sperm Count,[4]; animal 100 mpk-1,Low
same,Viability (%),[4]; animal 100 mpk-1,<10%
same,Motility,[4]; animal 100 mpk-2,Erratic
same,Sperm Count,[4]; animal 100 mpk-2,Low
same,Viability (%),[4]; animal 100 mpk-2,<5%
same,Motility,[4]; animal 100 mpk-3,Limited
same,Sperm Count,[4]; animal 100 mpk-3,Low
same,Viability (%),[4]; animal 100 mpk-3,<10%
same,vacuolar structures by electron microscopy,U-2 OS cells,presence of large vacuolar structures
Cc1cccc(C(=O)NC2C(=O)Nc3c(c(C)nn3-c3ccccc3)C2c2ccc(F)cc2)c1 (stereo not drawn) [F1],inhibition of labeled NEDD8 transfer from UBC12 to CUL2CTD-RBX2,[2],dose-dependent inhibition
"CCCC(C)N1CCC(N(Cc2ccccc2)C(=O)Nc2cccc(C(F)(F)F)c2)CC1 (stereo not drawn) [A15, 1-Benzyl-1-(1-(Pentan-2-yl)Piperidin-4-yl)-3-(3-(Trifluoromethyl)Phenyl)Urea]",effect on endosome maturation,endosome maturation; 10 μM on cells,affect endosome maturation
same,vacuolar structures by electron microscopy,U-2 OS cells,presence of large vacuolar structures
C=CC(=O)Nc1cccc(CN(C(=O)Nc2cccc(C(F)(F)F)c2)C2CCN(C(C)CCC)CC2)c1 (stereo not drawn) [A18],levels of neddylated Cullins / cullin neddylation,HCC95 cancer cells,reduce the levels of neddylated Cullins; also recorded: selectively inhibit cullin neddylation
same,anchorage independent growth,HCC95 cells,inhibit the anchorage independent growth of HCC95 cells
same,IC50,DCN1-UBC12 interaction; read-out: TR-FRET IC50,0.111 µM
CCOc1cc(CN2CCC(N(Cc3ccccc3)C(=O)Nc3cccc(C(F)(F)F)c3)CC2)cc(Cl)c1O [compound 25],solubility kinetic,physchem,0.4 ± 0.1 µM
same,Pampa (×10^−6 cm/s),[1],110 ± 190 ×10^−6 cm/s
C=CC(=O)NCc1cccc(CN(C(=O)Nc2cccc(C(F)(F)F)c2)C2CCN(C(C)CCC)CC2)c1 (stereo not drawn) [A3],IC50,DCN1-UBC12 interaction; read-out: TR-FRET IC50,0.018 µM
same,vacuolar structures by electron microscopy,U-2 OS cells,presence of large vacuolar structures
O=C(Nc1cccc(C(F)(F)F)c1)N(Cc1ccccc1)C1CCN(Cc2ccc3c(c2)OCO3)CC1 [compound 26],solubility kinetic,physchem,< 0.1 µM
same,IC50,DCN1-UBC12 interaction; [5],7 µM
same,Pampa (×10^−6 cm/s),[1],>2200 ×10^−6 cm/s
"O=C(Nc1cccc(C(F)(F)F)c1)NC1CCN(Cc2ccccc2)CC1 [B7, 1-(1-Benzylpiperidin-4-yl)-3-(3-(Trifluoromethyl)Phenyl)Urea]",inhibition of the DCN1-UBC12NAc interaction,DCN1-UBC12 interaction,dose-dependent inhibition
same,inhibition of DCN1 dependent neddylation,[2]; dependence on presence of DCN1,specifically inhibits DCN1 dependent nedylation
same,inhibition of labeled NEDD8 transfer from UBC12 to CUL2CTD-RBX2,[2],dose-dependent inhibition
O=C(Nc1cccc(C(F)(F)F)c1)N(Cc1ccccc1)C1CCN(Cc2ccc(F)cc2)CC1 [compound 24],solubility kinetic,physchem,0.9 ± 0.1 µM
same,IC50,DCN1-UBC12 interaction; [5],9.2 µM
same,Pampa (×10^−6 cm/s),[1],>2200 ×10^−6 cm/s
C=CS(=O)(=O)Nc1cccc(CN(C(=O)Nc2cccc(C(F)(F)F)c2)C2CCN(C(C)CCC)CC2)c1 (stereo not drawn) [A27],IC50,DCN1-UBC12 interaction; read-out: TR-FRET IC50,0.165 µM
Cc1ccc(CN2CCC(N(Cc3ccccc3)C(=O)Nc3cc(F)cc(C(F)(F)F)c3)CC2)o1 [A219],IC50,DCN1-UBC12 interaction; read-out: TR-FRET IC50,> 24.2 µM
CCCC(C)N1CCC(N(Cc2ccccc2)C(=O)Nc2ccc3ccccc3c2)CC1 (stereo not drawn) [A10],IC50,DCN1-UBC12 interaction; read-out: TR-FRET IC50,0.0789 µM
CCCC(C)N1CCC(N(Cc2ccccc2)C(=O)Nc2ccccc2Sc2ccccc2)CC1 (stereo not drawn) [A303],IC50,DCN1-UBC12 interaction; read-out: TR-FRET IC50,> 89.9 µM
CC1CC(NC(=O)Nc2cnn(C)c2)CCN1Cc1ccccc1 (stereo not drawn) [B42],IC50,DCN1-UBC12 interaction; read-out: TR-FRET IC50,> 64.4 µM
"CCCN1CCC(N(Cc2ccccc2)C(=O)Nc2cccc(C(F)(F)F)c2)CC1 [A85, 1-Benzyl-1-(1-Propylpiperidin-4-yl)-3-(3-(Trifluoromethyl)Phenyl)Urea]",IC50,DCN1-UBC12 interaction; read-out: TR-FRET IC50,0.98 µM
C=CS(=O)(=O)NCCCN(C(=O)Nc1cccc(C(F)(F)F)c1)C1CCN(C(C)CCC)CC1 (stereo not drawn) [drawing 838],IC50,DCN1-UBC12 interaction; read-out: TR-FRET IC50,> 24 µM
CCCC(C)N1CCC(N(Cc2ccccc2)C(=O)Nc2cc(C(F)(F)F)ccc2F)CC1 (stereo not drawn) [A154],IC50,DCN1-UBC12 interaction; read-out: TR-FRET IC50,6.51 µM
Cc1cnc(-n2ncc(C(=O)N3CCN(C(C)C)CC3)c2C)nc1-c1cccs1 [E35],IC50,DCN1-UBC12 interaction; [6],> 67.6 µM
CSc1cccc(NC(=O)NC2CCN(Cc3ccccc3)CC2)c1 [B44],IC50,DCN1-UBC12 interaction; read-out: TR-FRET IC50,> 64.5 µM
CC(=O)O[C@H]1CN(Cc2ccccc2)CC[C@@H]1NC(=O)Nc1cccc(C(F)(F)F)c1 [A160],IC50,DCN1-UBC12 interaction; read-out: TR-FRET IC50,7.89 µM
CCCC(C)N1CCC(N(Cc2ccccc2)C(=O)Nc2ccc(S(=O)(=O)Nc3ccc(OC)nn3)cc2)CC1 (stereo not drawn) [A296],IC50,DCN1-UBC12 interaction; read-out: TR-FRET IC50,> 83.4 µM
CC1CN(Cc2ccccc2)CCC1N(C)C(=O)Nc1cccc2cnccc12 (stereo not drawn) [B23],IC50,DCN1-UBC12 interaction; read-out: TR-FRET IC50,> 113 µM
O=C(Nc1cccc(C(F)(F)F)c1)C1CCN(C(=O)c2ccco2)CC1 [C68],IC50,"DCN1-UBC12 interaction; Table 4, commercial compounds, read-out: TR-FRET IC50",> 75.7 µM
CCN(CC)C(=O)c1cnn(-c2ncc(C)c(-c3cccs3)n2)c1C1CC1 [E26],IC50,DCN1-UBC12 interaction; [6],65.2 µM
Cc1cc(C)cc(C(=O)N2CCC(c3nc4ccccc4s3)CC2)c1 [D10],IC50,DCN1-UBC12 interaction; read-out: TR-FRET IC50,25.4 µM

# Source: US11116757B2 (priority 2015, dated 2021)
